{
  "source": "paper PMC12015262",
  "about": "(Nature Communications, 2025)",
  "key": {"human recombinant ETAR": {"target": "T1, human recombinant ETAR (Homo sapiens, UniProt P25101)", "T1 sequence (P25101 21-427)": "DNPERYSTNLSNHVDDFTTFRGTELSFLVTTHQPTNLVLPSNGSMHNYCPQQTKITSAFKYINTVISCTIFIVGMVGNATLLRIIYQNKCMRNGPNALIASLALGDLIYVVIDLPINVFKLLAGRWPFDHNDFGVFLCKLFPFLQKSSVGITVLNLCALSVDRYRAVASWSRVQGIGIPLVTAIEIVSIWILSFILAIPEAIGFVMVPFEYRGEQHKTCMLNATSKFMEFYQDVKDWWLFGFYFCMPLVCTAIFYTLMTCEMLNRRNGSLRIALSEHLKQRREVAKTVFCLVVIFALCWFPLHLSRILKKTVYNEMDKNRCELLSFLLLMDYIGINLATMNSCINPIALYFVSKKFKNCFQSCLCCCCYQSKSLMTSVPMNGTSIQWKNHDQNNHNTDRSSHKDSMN", "details": "competition binding"}, "[1]": {"assay": "Pharmacokinetic study, intravenous, male CD-1 mice", "format": "in vivo"}, "[2]": {"details": "human, s9"}, "[3]": {"details": "mouse, s9"}, "[4]": {"target": "human endothelin type B receptor (ETB), in membranes of CHO cells (human) (UniProt P24530)", "assay": "radioligand binding"}, "[5]": {"target": "T2, recombinant human ETB receptor (Homo sapiens, UniProt P24530)", "T2 sequence (P24530 27-442)": "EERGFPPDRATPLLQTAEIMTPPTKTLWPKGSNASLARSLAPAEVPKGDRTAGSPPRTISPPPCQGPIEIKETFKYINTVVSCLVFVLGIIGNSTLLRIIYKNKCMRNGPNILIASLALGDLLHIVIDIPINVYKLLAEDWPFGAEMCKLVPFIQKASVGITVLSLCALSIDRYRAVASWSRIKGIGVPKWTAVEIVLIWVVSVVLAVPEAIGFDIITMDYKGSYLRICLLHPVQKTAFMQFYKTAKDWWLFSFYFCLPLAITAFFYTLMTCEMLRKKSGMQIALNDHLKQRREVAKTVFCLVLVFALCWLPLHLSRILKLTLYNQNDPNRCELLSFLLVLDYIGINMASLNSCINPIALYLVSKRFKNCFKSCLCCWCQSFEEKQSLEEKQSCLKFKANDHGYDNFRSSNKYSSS", "format": "binding", "details": "Discussion"}, "wild-type ETB": {"tested_on": "wild-type ETB", "details": "previous study; cited from earlier work"}},
  "note": "Where two headings read alike, the source gives them in different places. Where a SMILES comes first, the peptide text is derived from it. Bridges are numbered along the chain shown (N, C = ends).",
  "data": [
    {"compound": "C[C@@H](O)[C@@H]1NC(=O)CNC(=O)[C@H](Cc2c[nH]cn2)NC(=O)[C@H](Cc2c[nH]c3ccccc23)NC(=O)[C@H](CC(N)=O)NC(=O)CNC(=O)C[C@@H](C(=O)N[C@@H](Cc2c[nH]c3ccccc23)C(=O)N[C@@H](Cc2ccccc2)C(=O)N[C@@H](Cc2ccccc2)C(=O)N[C@@H](CC(N)=O)C(=O)N[C@@H](Cc2ccc(O)cc2)C(=O)N[C@@H](Cc2ccc(O)cc2)C(=O)N[C@@H](Cc2c[nH]c3ccccc23)C(=O)O)NC(=O)[C@@H]2CCCN2C(=O)[C@H](CO)NC1=O", "note": "[RES-701-3] (GNWHGTSPDWFFNYYW-OH; lactam N-9 (inferred))", "values": [
      {"measurement": "activity against ETA", "setting": "human recombinant ETAR", "result": "no activity"},
      {"measurement": "half-life", "setting": "[1]; mouse, in vivo, iv, 3 mg/kg, t1/2, 3 mg/kg IV, male CD-1 mice", "result": "> 6", "unit": "h"},
      {"measurement": "half-life", "setting": "[2]", "result": "> 6", "unit": "h"},
      {"measurement": "half-life", "setting": "[3]", "result": "> 6", "unit": "h"}
    ]},
    {"compound": "RES-701-3 T6E (peptide)", "values": [
      {"measurement": "fold reduction of affinity against RES-701-3", "setting": "[4]", "result": 50, "unit": "fold"}
    ]},
    {"compound": "Cc1cc(C)cc(C(=O)N(C)[C@H](Cc2ccc(-c3ccccc3)cc2)C(=O)N[C@@H](Cc2c[nH]c3ccccc23)C(=O)O)c1", "note": "[IRL2500]", "values": [
      {"measurement": "selectivity for ETB (ETB/ETA)", "setting": "[5]", "result": 50, "unit": "×"}
    ]},
    {"compound": "COc1ccccc1Oc1c(NS(=O)(=O)c2ccc(C(C)(C)C)cc2)nc(-c2ncccn2)nc1OCCO", "note": "[Bosentan]", "values": [
      {"measurement": "effect on receptor activation level of wild-type ETB", "setting": "wild-type ETB", "result": "does not change the receptor activation level"}
    ]},
    {"compound": "CCCC[C@@H](NC(=O)[C@@H](Cc1cn(C(=O)OC)c2ccccc12)NC(=O)[C@H](CC(C)(C)C)NC(=O)N1[C@H](C)CCC[C@@H]1C)C(=O)O", "note": "[BQ-788, Dmpc-γ-MeLeul-D-Trp(1-CO2CH3)-D-Nle-OH, reference compound]", "values": [
      {"measurement": "half-life compared with RES-701-3", "setting": "[1]; same experiment, IV, mice", "result": "nearly tenfold lower half-life"}
    ]}
  ]
}
